Article PMC4215169 (Nature communications, 2014)

How the values were obtained:
[1] = system: HCV protease; conditions: cited from earlier work
[2] = target: wild-type HCV protease (Hepatitis C virus genotype 1a, UniProt P27958); format: biochemical
[3] = target: HCV protease D168Y (Hepatitis C virus genotype 1a, UniProt P27958, D1194Y); assay: biochemical
[4] = target: HCV protease D168E (Hepatitis C virus genotype 1a, UniProt P27958, D1194E); assay: biochemical

| SMILES | IC50 [1] | IC50 [2] | IC50 [3] | IC50 [4] |
| --- | --- | --- | --- | --- |
| C=C[C@@H]1C[C@]1(NC(=O)[C@@H]1C[C@@H](Oc2ncc(OC)c3ccc(Cl)cc23)CN1C(=O)[C@@H](NC(=O)OC(C)(C)C)C(C)(C)C)C(=O)NS(=O)(=O)C1CC1 [asunaprevir] | ~1 nM | – | – | – |
| CC(C)(C)OC(=O)N[C@H]1CCCCC/C=C\[C@@H]2C[C@@]2(C(=O)NS(=O)(=O)C2CC2)NC(=O)[C@@H]2C[C@@H](OC(=O)N3Cc4cccc(F)c4C3)CN2C1=O [danoprevir] | ~0.3 nM | 1.3 ± 0.1 nM | 34.4 ± 2.8 nM | 38.9 ± 2.4 nM |
